For 13 compounds, TGI results are on record in PubChem BioAssay (NCI).

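All cell lines were grown in 96-well plates and treated with compound for 48 hours. Definition used: TGI = concentration required for complete inhibition of growth.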

Test systems include M14 melanoma; UACC-257 melanoma; NCI-H226 lung; OVCAR-4 ovarian; HL-60(TB) leukemia; MDA-MB-231 breast; HOP-92 NSCLC; DU-145 prostate; MDA-MB-435; SK-MEL-5 melanoma.
Test in all cases: NCI-60 cell line screen, 48 h

For the compound `Cc1ccc(-[n+]2cc([O-])on2)cc1`, the TGI in the experiment on M14 melanoma, with UACC-257 melanoma, in the experiment on NCI-H226 lung, in the experiment with OVCAR-4 ovarian, with HL-60(TB) leukemia and with MDA-MB-231 breast was > 100 µM throughout. Further, the TGI in the experiment on HOP-92 NSCLC, with DU-145 prostate, in the experiment with MDA-MB-435 and in the experiment with SK-MEL-5 melanoma was > 100 µM in each case.
Consider `Cc1cn(C2OC(CO[Si](C)(C)C(C)(C)C)C(N(C)O[Si](C)(C)C(C)(C)C)C2[Se]c2ccccc2)c(=O)[nH]c1=O` (stereo not given), for which the TGI was 50.8 µM in the experiment with M14 melanoma; 21.7 µM in the experiment with NCI-H226 lung; 8.58 µM with OVCAR-4 ovarian; > 100 µM in the experiment on HL-60(TB) leukemia; 43.8 µM with MDA-MB-231 breast; 10.9 µM in the experiment with HOP-92 NSCLC. In addition, the TGI amounted to 79 µM with DU-145 prostate, 21 µM with MDA-MB-435 and 53.7 µM in the experiment with SK-MEL-5 melanoma.
As for `C(=C/CCCN1O[C@@H](CCCCCCCCc2cccnc2)[C@H]2CCC[C@H]21)/CCCCCCCCCc1cccnc1`, the TGI is 63 µM with M14 melanoma; 41.7 µM with UACC-257 melanoma; 36.8 µM with NCI-H226 lung; > 100 µM with OVCAR-4 ovarian; 23 µM in the experiment with HL-60(TB) leukemia; 36.9 µM in the experiment on MDA-MB-231 breast. In addition, the TGI in the experiment with HOP-92 NSCLC was 28.1 µM; with DU-145 prostate it was > 100 µM; in the experiment on MDA-MB-435 it was 38 µM; with SK-MEL-5 melanoma, 43.7 µM.
As for `CC(N)/C(N)=N/O` (stereo not given), the TGI with M14 melanoma, with UACC-257 melanoma, in the experiment with NCI-H226 lung, in the experiment with OVCAR-4 ovarian, with HL-60(TB) leukemia and in the experiment on MDA-MB-231 breast was > 100 µM in each case. Also, the TGI in the experiment on HOP-92 NSCLC, with DU-145 prostate, in the experiment with MDA-MB-435 and with SK-MEL-5 melanoma was > 100 µM throughout.
As to `O=C1/C(=C\c2ccc(Cl)cc2Cl)Sc2scc(-c3ccc(O)c(O)c3)[n+]21`, the TGI in the experiment on M14 melanoma was 40.6 µM; with UACC-257 melanoma, 71.3 µM; in the experiment with NCI-H226 lung, 35.4 µM; in the experiment on OVCAR-4 ovarian, 35.8 µM; with HL-60(TB) leukemia, 29.8 µM; in the experiment on MDA-MB-231 breast, 61.2 µM. For the same compound, the TGI in the experiment on HOP-92 NSCLC was found to be 23.1 µM; in the experiment with DU-145 prostate, 41.9 µM; in the experiment with MDA-MB-435, 57.7 µM; in the experiment on SK-MEL-5 melanoma, 22.9 µM.
As for `CCCCCCc1cc2cc(-c3cn4ccsc4n3)c(=O)oc2cc1O`, the TGI with UACC-257 melanoma, with NCI-H226 lung, with OVCAR-4 ovarian, with HL-60(TB) leukemia, in the experiment on MDA-MB-231 breast and with HOP-92 NSCLC was > 100 µM in each case. Further, the TGI in the experiment with DU-145 prostate was > 100 µM; in the experiment on MDA-MB-435, > 27.5 µM; in the experiment on SK-MEL-5 melanoma, > 44.9 µM.
As to `CC(=O)CC1CCC(=O)/C=C/C(=O)OC(CC(C)=O)CCC(=O)/C=C/C(=O)O1` (stereo not given), the TGI turned out to be 10.6 µM in the experiment with M14 melanoma; 31.4 µM with UACC-257 melanoma; 61.3 µM in the experiment on NCI-H226 lung; 25.4 µM with OVCAR-4 ovarian; 15 µM in the experiment on MDA-MB-231 breast; 10.3 µM in the experiment on HOP-92 NSCLC. Besides, the TGI in the experiment on DU-145 prostate worked out at 35 µM; in the experiment with MDA-MB-435, 32 µM; in the experiment on SK-MEL-5 melanoma, 27.3 µM.
In the case of `COC(=O)CC(C)(NS(=O)c1ccc(C)cc1)c1ccccc1` (stereo not given), the TGI in the experiment with UACC-257 melanoma, in the experiment on NCI-H226 lung, in the experiment on OVCAR-4 ovarian, in the experiment on HL-60(TB) leukemia, in the experiment with MDA-MB-231 breast and in the experiment on HOP-92 NSCLC was > 100 µM throughout. Moreover, the TGI in the experiment with DU-145 prostate, in the experiment on MDA-MB-435 and in the experiment on SK-MEL-5 melanoma was > 100 µM in each case.
Regarding `CCOC(=O)c1ccc(-c2cc(C)no2)[nH]1`, the TGI in the experiment with M14 melanoma, in the experiment with UACC-257 melanoma, in the experiment on NCI-H226 lung, in the experiment on OVCAR-4 ovarian, in the experiment with HL-60(TB) leukemia and in the experiment on MDA-MB-231 breast was > 100 µM each time. The TGI in the experiment on HOP-92 NSCLC is > 100 µM; in the experiment with DU-145 prostate it was > 100 µM; with MDA-MB-435, 29.3 µM; in the experiment with SK-MEL-5 melanoma, > 100 µM.
With `N#CSC#CCCC#CSC#N`, the TGI in the experiment with M14 melanoma was 26.4 µM; in the experiment with UACC-257 melanoma, 32.2 µM; in the experiment on NCI-H226 lung, 58.2 µM; with OVCAR-4 ovarian it was 58.5 µM; in the experiment with HL-60(TB) leukemia it was > 100 µM; in the experiment on MDA-MB-231 breast, 42 µM. Besides, the TGI in the experiment on HOP-92 NSCLC was 39.5 µM; with DU-145 prostate, 28.3 µM; in the experiment with MDA-MB-435 it was 56.2 µM; in the experiment on SK-MEL-5 melanoma, 34.8 µM.
Consider `C[C@]12c3c4cc(NC(=O)C(=O)NCc5ccc(-c6ccccn6)nc5)cc3Oc3cc(NC(=O)C(=O)NCc5ccc(-c6ccccn6)nc5)cc(c31)OC1C=C(NC(=O)C(=O)NCc3ccc(-c5ccccn5)nc3)C=C(O4)C12` (stereo not given in full), for which the TGI in the experiment on M14 melanoma was > 100 µM; in the experiment on UACC-257 melanoma, > 100 µM; in the experiment on NCI-H226 lung, > 100 µM; in the experiment with OVCAR-4 ovarian, 29.8 µM; in the experiment with HL-60(TB) leukemia it was > 100 µM; with MDA-MB-231 breast, 27.5 µM. Moreover, the figures for the TGI in the experiment on DU-145 prostate, in the experiment with MDA-MB-435 and with SK-MEL-5 melanoma were 98.6 µM, > 100 µM and > 100 µM, respectively.
Regarding `O=c1[nH]c(=O)c2c3n(cc2[nH]1)CCCCC3`, the TGI in the experiment with M14 melanoma, with UACC-257 melanoma, in the experiment with NCI-H226 lung, in the experiment with OVCAR-4 ovarian, in the experiment on HL-60(TB) leukemia and in the experiment with MDA-MB-231 breast was > 100 µM throughout. In addition, the TGI in the experiment with HOP-92 NSCLC, with DU-145 prostate, in the experiment on MDA-MB-435 and with SK-MEL-5 melanoma was > 100 µM each time.
As to `CCN(CC)CCCNC(=O)c1cc(-c2nccn2C)nc2ccccc12`, the TGI in the experiment with M14 melanoma, in the experiment on UACC-257 melanoma, in the experiment with NCI-H226 lung, in the experiment with OVCAR-4 ovarian, in the experiment on HL-60(TB) leukemia and with MDA-MB-231 breast was > 100 µM throughout. Also, the TGI in the experiment with HOP-92 NSCLC, with DU-145 prostate, in the experiment on MDA-MB-435 and in the experiment on SK-MEL-5 melanoma was > 100 µM in each case.
